Patent US20210186984A1, “CERTAIN (2S)-N-[(1S)-1-CYANO-2-PHENYLETHYL]-1,4-OXAZEPANE-2-CARBOXAMIDES FOR TREATING ANCA ASSOCIATED VASCULITIDES” (Insmed Incorporated, priority 2018, published 2021)

Tests used:
surface PR3 = assay: Fluorescence microscopy of surface PR3 on neutrophils differentiated in presence of INS1007; type: cell-based, human; settings: differentiation in the presence of 10 μM; neutrophils derived from bone marrow and umbilical cord stem cells (both cell types)
Description: To evaluate the pharmacological effects of INS1007 on surface PR3 expression, total PR3 expression, and NSP activity, stem cells were differentiated to neutrophils in the presence of INS1007 at increasing concentrations. Primary bone marrow (BM) or umbilical cord blood (UC) derived CD34^+ neutrophil progenitor cells (AllCells; Alameda, Calif.) were cultured for 7 days in STEMSPAN™ SFEM media (Stemcell Technologies; Tukwila, WA) supplemented with recombinant human Stem Cell Factor (Peprotech; Rocky Hill, NJ) and recombinant human IL-3 (Peprotech). The cells were differentiated in culture for another 7 days in STEMSPAN™ SFEM media (Stemcell Technologies) with recombinant human Granulocyte Colony Stimulating Factor (Peprotech), plus increasing concentrations of INS1007 (0-10 μM). […]
In a separate experiment, neutrophils were harvested, stained for 30 min. with either a mouse anti-PR3 monoclonal antibody (Abcam; Cambridge, Mass.) or a mouse monoclonal IgG isotype control (Abcam), followed by a Cy5-conjugated goat anti-mouse IgG secondary antibody (Abcam), fixed in 4% formaldehyde, and mounted to glass slides with PROLONGTM Diamond Antifade Mountant with DAPI (Thermo Fisher; Waltham, Mass.). Samples were imaged with an Axio fluorescence microscope (Zeiss; Oberkochen, Germany) using constant settings while imaging samples from different treatment conditions.

total proteinase 3 (PR3) = assay: Flow cytometry of total (surface and intracellular) PR3 expression in differentiated neutrophils; type: cell-based, human
Description: To evaluate the pharmacological effects of INS1007 on surface PR3 expression, total PR3 expression, and NSP activity, stem cells were differentiated to neutrophils in the presence of INS1007 at increasing concentrations. Primary bone marrow (BM) or umbilical cord blood (UC) derived CD34^+ neutrophil progenitor cells (AllCells; Alameda, Calif.) were cultured for 7 days in STEMSPAN™ SFEM media (Stemcell Technologies; Tukwila, WA) supplemented with recombinant human Stem Cell Factor (Peprotech; Rocky Hill, NJ) and recombinant human IL-3 (Peprotech). The cells were differentiated in culture for another 7 days in STEMSPAN™ SFEM media (Stemcell Technologies) with recombinant human Granulocyte Colony Stimulating Factor (Peprotech), plus increasing concentrations of INS1007 (0-10 μM). At the end of the differentiation/treatment period, cells were harvested for analysis.
Differentiated neutrophils were harvested for flow cytometry to quantify PR3 expression on the surface of neutrophils (FIGS. 1 and 2) and neutrophil total PR3 expression (FIG. 3).

Cn1c(=O)oc2ccc(-c3ccc(C[C@@H](C#N)NC(=O)[C@@H]4CNCCCO4)cc3)cc21 [INS1007, (2S)-N-{(1S)-1-cyano-2-[4-(3-methyl-2-oxo-2,3-dihydro-1,3-benzoxazol-5-yl)phenyl]ethyl}-1,4-oxazepane-2-carboxamide]
surface PR3 (fluorescence microscopy) (surface PR3): markedly reduced
total PR3 levels (total proteinase 3 (PR3); bone marrow stem cell-derived neutrophils, not completely concentration-dependent): significantly reduced
percentage of cells with positive total PR3 expression (total proteinase 3 (PR3); neutrophils derived from either umbilical cord blood or bone marrow stem cells): did not reduce
total PR3 levels (total proteinase 3 (PR3); umbilical cord blood stem cell-derived neutrophils): did not reach statistically significant reduction
